Read-outs that look alike come from different tables or passages of the source.
What was measured:
[1] = tested on: PPIs of the SKEMPI data set (by PDBID); conditions: ref SKEMPI, cited from earlier work; for sk_ddG_kJ (SKEMPI experimental ΔΔG of binding, mutation to alanine): single mutation to alanine in the complex of the given PDBID; for sk_ddG_kJ (SKEMPI experimental ΔΔG) / sk_ddG_kJ (SKEMPI experimental ΔΔG, mutation to alanine): single mutation to alanine; for sk_ddG_kJ (SKEMPI experimental ΔΔG): complex given by PDBID, mutation by mut_pdb; for sk_ddG_kJ (SKEMPI experimental ΔΔG, mutation to alanine): sheet sortedByGroup, r_group DERKH
[2] = tested on: PPIs of the SKEMPI data set (by PDBID); assay: SKEMPI experimental ΔΔG, single mutations to alanine; assay type: binding; conditions: for sk_class: class of the SKEMPI experimental ΔΔG
[3] = Positive / Neutral / Negative by ΔΔG threshold 4.184 kJ/mol, ref SKEMPI
[4] = class by ΔΔG threshold 4.184 kJ/mol, ref SKEMPI
[5] = class by the 4.184 kJ/mol threshold, r_group DERKH

| Substance | sk_ddG_kJ (SKEMPI experimental ΔΔG) [1] [kJ] | sk_class [2] | also measured |
| --- | --- | --- | --- |
| 1A22 LA45A |  |  | sk_ddG_kJ (SKEMPI experimental ΔΔG of binding, mutation to alanine) [1]: 5.02 kJ; sk_class (class of the SKEMPI experimental ΔΔG) [2, 3]: Positive (positive (a hot residue) ΔΔG ≥ 4.184 kJ/mol) |
| 1A22 LA73A |  |  | sk_ddG_kJ (SKEMPI experimental ΔΔG of binding, mutation to alanine) [1]: -0.84 kJ; sk_class (class of the SKEMPI experimental ΔΔG) [2, 3]: Neutral (neutral (little effect) 4.184 kJ/mol < ΔΔG > −4.184 kJ/mol) |
| 1A22 NA12A | 0.42 | Neutral (neutral (little effect) 4.184 kJ/mol < ΔΔG > −4.184 kJ/mol) |  |
| 1A22 NA63A | 1.26 | Neutral (neutral (little effect) 4.184 kJ/mol < ΔΔG > −4.184 kJ/mol) |  |
| 1A22 QA22A | -0.84 | Neutral (neutral (little effect) 4.184 kJ/mol < ΔΔG > −4.184 kJ/mol) |  |
| 1A22 QA29A | -2.51 | Neutral (neutral (little effect) 4.184 kJ/mol < ΔΔG > −4.184 kJ/mol) |  |
| 1A22 QA46A | 0.42 | Neutral (neutral (little effect) 4.184 kJ/mol < ΔΔG > −4.184 kJ/mol) |  |
| 1A22 QA68A | 2.51 | Neutral (neutral (little effect) 4.184 kJ/mol < ΔΔG > −4.184 kJ/mol) |  |
| 1A22 QA69A | -0.21 | Neutral (neutral (little effect) 4.184 kJ/mol < ΔΔG > −4.184 kJ/mol) |  |
| 1A22 QA181A | 1.13 | Neutral (neutral (little effect) 4.184 kJ/mol < ΔΔG > −4.184 kJ/mol) |  |
| 1A22 RA8A |  |  | sk_ddG_kJ (SKEMPI experimental ΔΔG, mutation to alanine) ([1]; PPI given by PDBID): 0.84 kJ; sk_class (class of the SKEMPI experimental ΔΔG) [2, 4]: Neutral (neutral (little effect) 4.184 kJ/mol < ΔΔG > −4.184 kJ/mol) |
| 1A22 RA16A |  |  | sk_ddG_kJ (SKEMPI experimental ΔΔG, mutation to alanine) ([1]; PPI given by PDBID): 1.00 kJ; sk_class (class of the SKEMPI experimental ΔΔG) [2, 4]: Neutral (neutral (little effect) 4.184 kJ/mol < ΔΔG > −4.184 kJ/mol) |
| 1A22 RA19A |  |  | sk_ddG_kJ (SKEMPI experimental ΔΔG, mutation to alanine) ([1]; PPI given by PDBID): 0.21 kJ; sk_class (class of the SKEMPI experimental ΔΔG) [2, 4]: Neutral (neutral (little effect) 4.184 kJ/mol < ΔΔG > −4.184 kJ/mol) |
| 1A22 RA64A |  |  | sk_ddG_kJ (SKEMPI experimental ΔΔG, mutation to alanine) ([1]; PPI given by PDBID): 6.69 kJ; sk_class (class of the SKEMPI experimental ΔΔG) [2, 4]: Positive (positive (a hot residue) ΔΔG ≥ 4.184 kJ/mol) |
| 1A22 RA178A |  |  | sk_ddG_kJ (SKEMPI experimental ΔΔG, mutation to alanine) ([1]; PPI given by PDBID): 10.04 kJ; sk_class (class of the SKEMPI experimental ΔΔG) [2, 4]: Positive (positive (a hot residue) ΔΔG ≥ 4.184 kJ/mol) |
| 1A22 RA183A |  |  | sk_ddG_kJ (SKEMPI experimental ΔΔG, mutation to alanine) ([1]; PPI given by PDBID): 2.09 kJ; sk_class (class of the SKEMPI experimental ΔΔG) [2, 4]: Neutral (neutral (little effect) 4.184 kJ/mol < ΔΔG > −4.184 kJ/mol) |

| Substance | sk_ddG_kJ (SKEMPI experimental ΔΔG) [1] [kJ] | sk_class [2] | also measured |
| --- | --- | --- | --- |
| 1A22 SA51A | 1.26 | Neutral (neutral (little effect) 4.184 kJ/mol < ΔΔG > −4.184 kJ/mol) |  |
| 1A22 SA55A | 0.46 | Neutral (neutral (little effect) 4.184 kJ/mol < ΔΔG > −4.184 kJ/mol) |  |
| 1A22 SA57A | 0.84 | Neutral (neutral (little effect) 4.184 kJ/mol < ΔΔG > −4.184 kJ/mol) |  |
| 1A22 SA62A | 0.42 | Neutral (neutral (little effect) 4.184 kJ/mol < ΔΔG > −4.184 kJ/mol) |  |
| 1A22 SA71A | 1.72 | Neutral (neutral (little effect) 4.184 kJ/mol < ΔΔG > −4.184 kJ/mol) |  |
| 1A22 SA184A | -0.21 | Neutral (neutral (little effect) 4.184 kJ/mol < ΔΔG > −4.184 kJ/mol) |  |
| 1A22 SA188A | -0.84 | Neutral (neutral (little effect) 4.184 kJ/mol < ΔΔG > −4.184 kJ/mol) |  |
| 1A22 TA175A | 8.37 | Positive (positive (a hot residue) ΔΔG ≥ 4.184 kJ/mol) |  |
| 1A22 VA180A |  |  | sk_ddG_kJ (SKEMPI experimental ΔΔG of binding, mutation to alanine) [1]: 0.00 kJ; sk_class (class of the SKEMPI experimental ΔΔG) [2, 3]: Neutral (neutral (little effect) 4.184 kJ/mol < ΔΔG > −4.184 kJ/mol) |
| 1A22 VA185A |  |  | sk_ddG_kJ (SKEMPI experimental ΔΔG of binding, mutation to alanine) [1]: 3.64 kJ; sk_class (class of the SKEMPI experimental ΔΔG) [2, 3]: Neutral (neutral (little effect) 4.184 kJ/mol < ΔΔG > −4.184 kJ/mol) |
| 1A22 YA42A |  |  | sk_ddG_kJ (SKEMPI experimental ΔΔG of binding, mutation to alanine) [1]: 0.84 kJ; sk_class (class of the SKEMPI experimental ΔΔG) [2, 3]: Neutral (neutral (little effect) 4.184 kJ/mol < ΔΔG > −4.184 kJ/mol) |
| 1A22 YA164A |  |  | sk_ddG_kJ (SKEMPI experimental ΔΔG of binding, mutation to alanine) [1]: 1.26 kJ; sk_class (class of the SKEMPI experimental ΔΔG) [2, 3]: Neutral (neutral (little effect) 4.184 kJ/mol < ΔΔG > −4.184 kJ/mol) |
| 1GC1 DC10A |  |  | sk_ddG_kJ (SKEMPI experimental ΔΔG, mutation to alanine) ([1]; complex by PDBID): 0.00 kJ; sk_class (class of the SKEMPI experimental ΔΔG) [2, 5]: Neutral (neutral (little effect) 4.184 kJ/mol < ΔΔG > −4.184 kJ/mol) |
| 1GC1 DC53A |  |  | sk_ddG_kJ (SKEMPI experimental ΔΔG, mutation to alanine) ([1]; complex by PDBID): 1.26 kJ; sk_class (class of the SKEMPI experimental ΔΔG) [2, 5]: Neutral (neutral (little effect) 4.184 kJ/mol < ΔΔG > −4.184 kJ/mol) |
| 1GC1 EC92A |  |  | sk_ddG_kJ (SKEMPI experimental ΔΔG, mutation to alanine) ([1]; complex by PDBID): 0.08 kJ; sk_class (class of the SKEMPI experimental ΔΔG) [2, 5]: Neutral (neutral (little effect) 4.184 kJ/mol < ΔΔG > −4.184 kJ/mol) |

Reference: paper PMC6804253, “Predicting and Experimentally Validating Hot-Spot Residues at Protein–Protein Interfaces” (ACS Chemical Biology, 2019)
